Tested on: Na^+-dependent Cl^−/HCO3^− exchanger (NCBE)
Test: Inhibition of the Na+-dependent Cl−/HCO3− exchanger (NCBE) in human endothelial cells (pHi recovery, BCECF fluorescence, FLIPR)
Assay type: cell-based
Conditions: 10 μM
Procedure, shortened: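 Fluorescence rise (FLIPR, 2 min, 35 °C) tracked pHi recovery in acid-loaded, BCECF-loaded ECV-304 cells after adding Na+- and HCO3−-containing buffer with 50 μM HOE 642 and graded compound doses. Inhibition was calculated against full-recovery and bicarbonate-free no-recovery controls.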

Row | SMILES | Residual activity % of the NCBE at 10 μM
1 | N#CNS(=O)(=O)c1ccccc1-c1ccc(CN(CCCc2ccccc2)C(=O)CCCc2cccs2)cc1 [Example 186] | 9.7%
2 | COCCN(Cc1ccc(-c2ccccc2S(=O)(=O)NC#N)cc1)C(=O)CCCc1cccs1 [Example 187] | 62.4%
3 | N#CNS(=O)(=O)c1ccccc1-c1ccc(CN(Cc2ccccn2)C(=O)CCCc2cccs2)cc1 [Example 188] | 52.3%
4 | N#CNS(=O)(=O)c1ccccc1-c1ccc(CN(C(=O)CCCc2cccs2)C2CC2)cc1 [Example 189] | 72.5%
5 | CN(Cc1ccc(-c2ccccc2S(=O)(=O)NC#N)cc1)C(=O)CCCc1cccs1 [Example 190] | 43.4%
6 | CCN(Cc1ccc(-c2ccccc2S(=O)(=O)NC#N)cc1)C(=O)CCCc1cccs1 [Example 191] | 39.3%
7 | N#CNS(=O)(=O)c1ccccc1-c1ccc(CN(Cc2nc3ccccc3[nH]2)C(=O)CCCc2cccs2)cc1 [Example 192] | 49.1%
8 | COC(=O)C(Cc1ccccc1)N(Cc1ccc(-c2ccccc2S(=O)(=O)NC#N)cc1)C(=O)CCCc1cccs1 (stereo not shown) [Example 193] | 62.8%
9 | N#CNS(=O)(=O)c1ccccc1-c1ccc(CN(CCCc2ccccc2)C(=O)C(=O)c2cccs2)cc1 [Example 194] | 61.1%
10 | COCCN(Cc1ccc(-c2ccccc2S(=O)(=O)NC#N)cc1)C(=O)C(=O)c1cccs1 [Example 195] | 58.3%
11 | N#CNS(=O)(=O)c1ccccc1-c1ccc(CN(Cc2ccccn2)C(=O)C(=O)c2cccs2)cc1 [Example 196] | 62.8%
12 | N#CNS(=O)(=O)c1ccccc1-c1ccc(CN(C(=O)C(=O)c2cccs2)C2CC2)cc1 [Example 197] | 79.9%
13 | CN(Cc1ccc(-c2ccccc2S(=O)(=O)NC#N)cc1)C(=O)C(=O)c1cccs1 [Example 198] | 51.1%
14 | CCN(Cc1ccc(-c2ccccc2S(=O)(=O)NC#N)cc1)C(=O)C(=O)c1cccs1 [Example 199] | 54.7%
15 | COC(=O)C(Cc1ccccc1)N(Cc1ccc(-c2ccccc2S(=O)(=O)NC#N)cc1)C(=O)C(=O)c1cccs1 (stereo not shown) [Example 201] | 69.6%
16 | N#CNS(=O)(=O)c1ccccc1-c1ccc(CN(CCCc2ccccc2)C(=O)Cc2c[nH]c3ccccc23)cc1 [Example 202] | 38.5%
17 | COCCN(Cc1ccc(-c2ccccc2S(=O)(=O)NC#N)cc1)C(=O)Cc1c[nH]c2ccccc12 [Example 203] | 30.3%
18 | N#CNS(=O)(=O)c1ccccc1-c1ccc(CN(Cc2ccccn2)C(=O)Cc2c[nH]c3ccccc23)cc1 [Example 204] | 52.4%
19 | N#CNS(=O)(=O)c1ccccc1-c1ccc(CN(C(=O)Cc2c[nH]c3ccccc23)C2CC2)cc1 [Example 205] | 41.7%
20 | CN(Cc1ccc(-c2ccccc2S(=O)(=O)NC#N)cc1)C(=O)Cc1c[nH]c2ccccc12 [Example 206] | 23.8%

Row | SMILES | Residual activity % of the NCBE at 10 μM
21 | CCN(Cc1ccc(-c2ccccc2S(=O)(=O)NC#N)cc1)C(=O)Cc1c[nH]c2ccccc12 [Example 207] | 31.0%
22 | N#CNS(=O)(=O)c1ccccc1-c1ccc(CN(Cc2nc3ccccc3[nH]2)C(=O)Cc2c[nH]c3ccccc23)cc1 [Example 208] | 50.7%
23 | COC(=O)C(Cc1ccccc1)N(Cc1ccc(-c2ccccc2S(=O)(=O)NC#N)cc1)C(=O)Cc1c[nH]c2ccccc12 (stereo not shown) [Example 209] | 56.2%
24 | N#CNS(=O)(=O)c1ccccc1-c1ccc(CN(CCCc2ccccc2)C(=O)Cc2csc3ccccc23)cc1 [Example 210] | 66.2%
25 | COCCN(Cc1ccc(-c2ccccc2S(=O)(=O)NC#N)cc1)C(=O)Cc1csc2ccccc12 [Example 211] | 50.6%
26 | N#CNS(=O)(=O)c1ccccc1-c1ccc(CN(Cc2ccccn2)C(=O)Cc2csc3ccccc23)cc1 [Example 212] | 60.2%
27 | N#CNS(=O)(=O)c1ccccc1-c1ccc(CN(C(=O)Cc2csc3ccccc23)C2CC2)cc1 [Example 213] | 45.0%
28 | CN(Cc1ccc(-c2ccccc2S(=O)(=O)NC#N)cc1)C(=O)Cc1csc2ccccc12 [Example 214] | 44.3%
29 | CCN(Cc1ccc(-c2ccccc2S(=O)(=O)NC#N)cc1)C(=O)Cc1csc2ccccc12 [Example 215] | 65.7%
30 | N#CNS(=O)(=O)c1ccccc1-c1ccc(CN(Cc2nc3ccccc3[nH]2)C(=O)Cc2csc3ccccc23)cc1 [Example 216] | 62.2%
31 | COC(=O)C(Cc1ccccc1)N(Cc1ccc(-c2ccccc2S(=O)(=O)NC#N)cc1)C(=O)Cc1csc2ccccc12 (stereo not shown) [Example 217] | 46.0%
32 | N#CNS(=O)(=O)c1ccccc1-c1ccc(CN(CCCc2ccccc2)C(=O)CCCCc2cccs2)cc1 [Example 218] | 87.1%
33 | COCCN(Cc1ccc(-c2ccccc2S(=O)(=O)NC#N)cc1)C(=O)CCCCc1cccs1 [Example 219] | 82.5%
34 | N#CNS(=O)(=O)c1ccccc1-c1ccc(CN(Cc2ccccn2)C(=O)CCCCc2cccs2)cc1 [Example 220] | 73.2%
35 | N#CNS(=O)(=O)c1ccccc1-c1ccc(CN(C(=O)CCCCc2cccs2)C2CC2)cc1 [Example 221] | 72.3%
36 | CN(Cc1ccc(-c2ccccc2S(=O)(=O)NC#N)cc1)C(=O)CCCCc1cccs1 [Example 222] | 76.7%
37 | CCN(Cc1ccc(-c2ccccc2S(=O)(=O)NC#N)cc1)C(=O)CCCCc1cccs1 [Example 223] | 53.8%
38 | N#CNS(=O)(=O)c1ccccc1-c1ccc(CN(Cc2nc3ccccc3[nH]2)C(=O)CCCCc2cccs2)cc1 [Example 224] | 79.8%
39 | COC(=O)C(Cc1ccccc1)N(Cc1ccc(-c2ccccc2S(=O)(=O)NC#N)cc1)C(=O)CCCCc1cccs1 (stereo not shown) [Example 225] | 88.1%
40 | N#CNS(=O)(=O)c1ccccc1-c1ccc(CN(CCCc2ccccc2)C(=O)Cc2ccsc2)cc1 [Example 226] | 34.8%

Row | SMILES | Residual activity % of the NCBE at 10 μM
41 | COCCN(Cc1ccc(-c2ccccc2S(=O)(=O)NC#N)cc1)C(=O)Cc1ccsc1 [Example 227] | 50.6%
42 | N#CNS(=O)(=O)c1ccccc1-c1ccc(CN(Cc2ccccn2)C(=O)Cc2ccsc2)cc1 [Example 228] | 94.8%
43 | N#CNS(=O)(=O)c1ccccc1-c1ccc(CN(C(=O)Cc2ccsc2)C2CC2)cc1 [Example 229] | 86.7%
44 | CN(Cc1ccc(-c2ccccc2S(=O)(=O)NC#N)cc1)C(=O)Cc1ccsc1 [Example 230] | 68.6%
45 | CCN(Cc1ccc(-c2ccccc2S(=O)(=O)NC#N)cc1)C(=O)Cc1ccsc1 [Example 231] | 57.8%
46 | N#CNS(=O)(=O)c1ccccc1-c1ccc(CN(Cc2nc3ccccc3[nH]2)C(=O)Cc2ccsc2)cc1 [Example 232] | 62.6%
47 | COC(=O)C(Cc1ccccc1)N(Cc1ccc(-c2ccccc2S(=O)(=O)NC#N)cc1)C(=O)Cc1ccsc1 (stereo not shown) [Example 233] | 68.1%
48 | N#CNS(=O)(=O)c1ccccc1-c1ccc(CN(Cc2ccc(C(F)(F)F)cc2)C(=O)Cc2cccs2)cc1 [Example 235] | 67.1%
49 | N#CNS(=O)(=O)c1ccccc1-c1ccc(CN(CCCc2ccccc2)C(=O)Cc2cccs2)cc1 [Example 236] | 35.1%
50 | COCCN(Cc1ccc(-c2ccccc2S(=O)(=O)NC#N)cc1)C(=O)Cc1cccs1 [Example 237] | 50.3%
51 | N#CNS(=O)(=O)c1ccccc1-c1ccc(CN(CC2=Nc3ccccc3CN2)C(=O)Cc2cccs2)cc1 [Example 238] | 54.7%
52 | CN(Cc1ccc(-c2ccccc2S(=O)(=O)NC#N)cc1)C(=O)Cc1cccs1 [Example 239] | 56.3%
53 | CCN(Cc1ccc(-c2ccccc2S(=O)(=O)NC#N)cc1)C(=O)Cc1cccs1 [Example 240] | 58.0%
54 | N#CNS(=O)(=O)c1ccccc1-c1ccc(CN(Cc2ccccc2)C(=O)C(N)c2ccccc2)cc1 (stereo not shown) [Example 241] | 66.0%
55 | N#CNS(=O)(=O)c1ccccc1-c1ccc(CN(Cc2ccccc2)C(=O)C(NC(=O)OCc2ccccc2)c2ccccc2)cc1 (stereo not shown) [Example 242] | 72.4%
56 | N#CNS(=O)(=O)c1ccccc1-c1ccc(CN(Cc2ccccc2)C(=O)Cc2ccccc2[N+](=O)[O-])cc1 [Example 243] | 99.9%
57 | N#CNS(=O)(=O)c1ccccc1-c1ccc(CN(Cc2ccccc2)C(=O)CCCCc2ccccc2)cc1 [Example 244] | 60.4%
58 | N#CNS(=O)(=O)c1ccccc1-c1ccc(CN(Cc2ccccc2)C(=O)C(=O)c2ccco2)cc1 [Example 245] | 73.0%

Reference: patent US6369069B1 (Aventis Pharma Deutschland GmbH, priority 1998, dated 2002)
